This passage reports GI50 and TGI results from PubChem BioAssay (NCI).

Assay in all cases: NCI anticancer screen, dose series, 48 h
For assay [1], the system named is BT-549 breast.
The test system of assay [2] is HCT-116 colon.
In assay [3] the test system is HOP-92 NSCLC.
The subject of assay [4] is MDA-MB-231 breast.
The test system of assay [5] is NCI-H226 lung.
Assay [6] relates to RXF 393 renal.
Assay [7] concerns SN12C renal.
The subject of assay [8] is A498 renal.
Assay [9] has as its system SR leukemia.
The test system of assay [10] is DU-145 prostate.

Where “and” joins values, the source holds several entries; their conditions need not be identical. Identical values can stand only once.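 Exposure lasted 48 hours, with cells grown in 96-well plates and compounds tested at five concentrations. GI50 = concentration required for 50% inhibition of growth. TGI marks complete inhibition of growth.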

On to `COC(=O)C1OC(O[C@H]2CCC3(C)C(CCC4(C)C3CC=C3C5CC(C)(C)CCC5(C(=O)O)CC[C@]34C)C2(C)C)C(O)C(OC2OC(CO)C(O)C(O)C2O)C1O` (stereo partly drawn), for which the GI50 in assay [1] was 6.93 µM; in [2], 6.39 µM; in [3], 7.12 µM; in [4], 7.28 µM; in assay [5], 6.18 µM; in assay [6], 11.3 µM. For the same compound, the GI50 in assay [7] is 6.34 µM. Moreover, the TGI was 15 µM in [1]; 11.5 µM in [2]; 14.5 µM in assay [3]; 13.5 µM in assay [4]; 12.2 µM in assay [5]; above 33.3 µM in [6]. The compound also came in with a TGI in [7] of 11.4 µM.

Consider `CCOC(=O)CC1=Nc2ccccc2SC1`, for which the TGI in assay [8], in assay [2], in [3], in assay [5], in assay [6] and in assay [7] was above 100 µM in each case.

For the compound `CCCCCCCCCCCCCCCC(=O)NCC(COP(=O)([O-])OCC[N+](C)(C)C)OCC` (stereo not drawn), the TGI came to 23.9 µM in assay [2]; 15.6 µM in assay [3]; 13.6 µM in [5]; 5.3 µM in assay [6]; 25 µM in assay [7]; 18.6 µM in assay [9].

`FC(F)(F)c1nc(-c2ccccc2Cl)[nH]c1C(F)(F)F`: the TGI in [2] worked out at 2.15 µM; in assay [3], 1.22 µM; in assay [5] it was 3.54 µM; in assay [6] it was 2.69 µM; in assay [7], 3.14 µM; in assay [9], 1.68 µM.

As for `C1COCCN1.C1COCCN1.N.N.[Cl-].[Pt+2]`, the GI50 in assay [2], in assay [5], in assay [6], in assay [7] and in [9] was above 100 µM in each case. Moreover, the TGI in [2], in [5], in assay [6], in [7] and in [9] was above 100 µM throughout.

As for `Cc1cc2c(cc1C)[n+](=O)c(C(=O)C/C(=N/NC(=O)c1ccccc1O)C(=O)Nc1ccccc1C(C)C)c(C)n2[O-]`, the TGI in assay [8], in [2], in assay [5], in assay [6] and in assay [7] was above 100 µM in each case.

In the case of `N#CC1(c2nc3ccccc3o2)C(=O)C(=O)N(C2C3CC4CC(C3)CC2C4)C(=O)C1=O` (stereo not drawn), the TGI in [8], in assay [2], in [3], in assay [5], in [6] and in assay [7] was above 100 µM throughout. The TGI in [9] is above 100 µM.

Regarding `CCOC(=O)C1(CC)CCCCC(=O)N1` (stereo not drawn), the TGI in assay [3], in assay [6] and in assay [7] was above 100 µM each time.

On to `COc1ccc(/C=C/C=C(/C#N)C(N)=S)cc1`, for which the GI50 in [8] was 25.1 µM; in assay [1] it was 30.1 µM; in [10] it was 32.7 µM; in [2], 15.6 µM; in assay [4] it was 26.9 µM; in assay [5], 55.7 µM. The GI50 is 14 µM in [6], 35.4 µM in assay [7] and 19.4 µM in assay [9]. Further, the TGI in [8] was 56.5 µM; in assay [1], above 100 µM; in assay [10] it was above 100 µM; in assay [2], 31 µM; in assay [4] it was 87.4 µM; in [5] it was above 100 µM. Also, the TGI in [6] was 30.1 µM; in [7], above 100 µM; in assay [9], above 100 µM.

For the compound `CC(=O)OC1=C2CC3(C)OC(=O)CC(C)(C)C3=CC=C2C=C(C(C)C)C1=O` (stereo not drawn), the TGI in assay [8] is 2.99 µM; in assay [2], 1.35 µM; in [3], 0.499 µM; in assay [5] it was 3.26 µM; in assay [6], 0.347 µM; in assay [7], 2 µM. The same compound yielded a TGI in [9] of 1.01 µM.

On to `O=c1[nH]c2ccccc2cc1C(Cl)=C(Cl)Cl`, for which the TGI in assay [8], in [2], in assay [3], in assay [5], in assay [6] and in [7] was above 100 µM in each case. This compound also returned a TGI in assay [9] above 100 µM.

Regarding `C=C1CCC2C(/C=C(\C)CCC1O)OC(=O)C2C` (stereo not drawn), the GI50 in assay [10] is above 100 µM; in assay [2] it was above 100 µM; in assay [3], above 100 µM; in [4], above 100 µM; in [5], above 100 µM; in assay [6], 23.2 µM. Further, the GI50 in [7] and in assay [9] was above 100 µM throughout. The TGI in assay [10], in assay [2], in [3], in assay [4], in [5] and in assay [6] was above 100 µM in each case. Besides, the TGI in assay [7] and in assay [9] was above 100 µM in each case.

Regarding `COc1ccc(-c2nn(-c3cccc(Cl)c3)cc2C2CC(c3ccccc3)=NN2C(C)=O)cc1` (stereo not drawn), the GI50 in assay [8] was 3.33 µM; in assay [1] it was 3.23 µM; in [10], 5.25 µM; in assay [2], 4.2 µM; in assay [4], 7.99 µM; in assay [5] it was 3.86 µM. Also, the GI50 was 6.49 µM in assay [6], 8.35 µM in assay [7] and 8.98 µM in assay [9]. Also, the TGI is 50.4 µM in [8]; 19.7 µM in [1]; above 100 µM in [10]; above 100 µM in assay [2]; above 100 µM in assay [4]; 30.9 µM in assay [5]. Besides, the TGI in [6] was 30.8 µM; in assay [7], above 100 µM; in assay [9], above 100 µM.

For `Cn1cc(NC(=O)c2cc(NC(=O)CCCCCCCCCCC(=O)Nc3cc(C(=O)Nc4cc(C(=O)NCCC(=N)N)n(C)c4)n(C)c3)cn2C)cc1C(=O)NCCC(=N)N`, the TGI in assay [2] was above 100 µM; in assay [5] it was above 100 µM; in assay [6], 77.5 µM; in assay [7] it was above 100 µM.

Take `Cc1ccc(-c2c(N)nc(NC#N)nc2CCC(=O)Nc2ccccc2[N+](=O)[O-])cc1`: the TGI in [8], in assay [2], in assay [3], in assay [5], in assay [6] and in assay [7] was above 100 µM throughout. Further, the TGI in assay [9] was above 100 µM.

On to `O=c1cc(-c2cccc(F)c2)[nH]c2cc3c(cc12)OCO3`, for which the TGI was above 9.41 µM in assay [8]; above 100 µM in assay [1]; 1.63 µM in [10]; 2.91 µM and 15.7 µM in [2]; 5.23 µM in assay [3]; 1.03 µM in assay [4]. The TGI in assay [5] was 9.77 µM and 1.49 µM; in [6], 4.84 µM; in assay [7], 75 µM and 23.3 µM. Besides, the GI50 was 0.22 µM in [2]; 0.951 µM and 0.0963 µM in assay [5]; 0.411 µM in assay [7].

`COc1cc2c(c3c1C=CCO3)C(=O)c1ccccc1C2=O`: the TGI in [2] was above 100 µM; in [3] it was above 100 µM; in assay [5] it was 97.8 µM; in assay [6], above 100 µM; in [7], above 100 µM; in [9], above 100 µM.

Consider `Cc1cc([C@@H](C)Nc2ccccc2C(=O)O)c2nc(N3CCOCC3)cc(=O)n2c1`, for which the GI50 in [8] is 0.0166 µM; in assay [1] it was 1.17 µM; in [10], above 10 µM; in assay [2] it was 2.76 µM; in assay [3], 0.175 µM; in assay [4], above 10 µM. The values for the GI50 in [5], in [6] and in assay [7] were above 10 µM, 0.0564 µM and above 10 µM, respectively. For the same compound, the TGI in assay [8] is 0.0945 µM; in assay [1] it was above 10 µM; in [10] it was above 10 µM; in assay [2] it was above 10 µM; in assay [3], 6.08 µM; in assay [4] it was above 10 µM. Further, the TGI in assay [5] is above 10 µM; in assay [6], 1.33 µM; in [7], above 10 µM.

On to `O=C(/C=C/c1ccc(Cl)cc1)c1ccc(Cl)cc1Cl`, for which the GI50 in [1] was 7.44 µM; in assay [10], 7.72 µM; in assay [2] it was 4.74 µM; in assay [3], 9.39 µM; in assay [4], 10.9 µM; in assay [5], 9.41 µM. The GI50 was 9.96 µM in assay [7] and 2.31 µM in [9]. Further, the TGI in [1] was found to be 14.8 µM; in assay [10], 15.7 µM; in assay [2], 33.5 µM; in assay [3] it was 19.4 µM; in assay [4], 22.1 µM; in assay [5], 18.1 µM. Moreover, the TGI in assay [7] came out at 20.9 µM; in assay [9], 50 µM.

On to `COc1ccc(-c2cc(-c3cc(Cl)ccc3Cl)nc3[nH]c(-c4cc(F)c(Cl)cc4Cl)cc(=O)c23)cc1`, for which the GI50 in assay [1] was 29.6 µM; in [10], 31.3 µM; in [2] it was 9.69 µM; in assay [3], 35.3 µM; in assay [4], 20.7 µM; in assay [5], 20.5 µM. Further, the GI50 was 17.4 µM in assay [6] and 24.5 µM in assay [7]. The TGI is above 100 µM in assay [1]; above 100 µM in assay [10]; 24.7 µM in [2]; above 100 µM in [3]; 83.8 µM in assay [4]; 63.6 µM in assay [5]. Besides, the TGI is above 100 µM in [6] and 76.8 µM in assay [7].

As for `CCCCCCCCCCCCC(=O)OC(c1cnco1)c1nc(C(O)CC(O)C(O)C(C)O)co1` (stereo not drawn), the TGI in [8] is above 100 µM; in [2] it was above 100 µM; in assay [3], above 100 µM; in assay [6], 64.2 µM; in assay [7], above 100 µM; in [9], 2.5 µM. In addition, the GI50 in assay [2] was 0.459 µM; in assay [3], 1.62 µM; in [5], 0.28 µM; in assay [6], 0.486 µM; in assay [7], 4.09 µM; in assay [9] it was 0.337 µM.

Regarding `CCOC(=O)C1=C(C)Nc2ccccc2S1`, the TGI in assay [8], in assay [2], in assay [3], in assay [5], in [6] and in assay [7] was above 100 µM each time. The compound further displayed a TGI in assay [9] above 100 µM.

With `O=[N+]([O-])[C@@H]1C2C=CC(C2)[C@H]1Cl` (stereo partly drawn), the TGI in assay [8], in assay [2], in assay [3], in assay [6], in assay [7] and in assay [9] was above 100 µM in each case.

Consider `CSC1=NC=CCN1C`, for which the TGI in assay [8], in assay [2], in [5] and in assay [7] was above 100 µM throughout.

`C=CCSC[C@H](NC(=O)COc1ccccc1)C(=O)NC(C(=O)OCc1ccc([N+](=O)[O-])cc1)=C(C)C`: the TGI in [8], in [2], in [5], in assay [6] and in assay [7] was above 100 µM each time.

Take `O=C(c1ccc2ccccc2c1)c1c(C(F)(F)F)n([O-])c2cc(Cl)c(Cl)cc2[n+]1=O`: the GI50 in assay [8] is 1.96 µM; in assay [1] it was 1.48 µM; in [10] it was 1.57 µM; in assay [2] it was 1.58 µM; in assay [3], 1.55 µM; in assay [4], 1.49 µM. For the same compound, the figures for the GI50 in assay [5], in assay [6] and in [7] were 1.46 µM, 1.6 µM and 1.73 µM, respectively. Moreover, the TGI in [8] came out at 4.68 µM; in [1], 2.8 µM; in assay [10], 2.9 µM; in assay [2], 2.92 µM; in assay [3] it was 3.18 µM; in assay [4], 2.82 µM. The TGI is 2.92 µM in [5], 3.04 µM in [6] and 3.1 µM in assay [7].

Regarding `CCOc1ccc(NC(=O)CC2Sc3ccccc3NC2=O)cc1` (stereo not drawn), the TGI in [8] was above 100 µM; in assay [2], 76.2 µM; in assay [5], above 100 µM; in assay [7] it was above 100 µM.
